From US20250228858A1, “ANTI-CANCER COMBINATION THERAPY” (Boehringer Ingelheim International GmbH, priority 2023, published 2025)
*1 amine or outer side, *2 acyl side, *3 side chain or, on linkers, in order; H or OH if unused. Where a SMILES comes first, the peptide text is derived from it. [ ]: non-standard residue; d: D form. The star is where a group is joined. Exatecan = CC[C@@]1(O)C(=O)OCc2c1cc1n(c2=O)Cc2c-1nc1cc(F)c(C)c3c1c2[C@@H](N*)CC3; Hexanoyl(6-maleimido) = O=C1C=CC(=O)N1CCCCCC(=O)*; NHCH2OCH2CO = O=C(COCN[*:1])[*:2]

Key:
[1] = tested on: T-DXd-resistant NCI-N87 cells; experiment: Proliferation assay (CellTiter Glo), T-DXd resistant NCI-N87 cells; format: cell-based, human; conditions: 5 days of incubation, in vitro
Procedure: (§1) Per well, 1000 cells are seeded in 40 μL medium in white, sterile 384-well culture plates (TC-treated; PerkinElmer #6007680) and incubated overnight in a humidified incubator at 37° C. and 5% CO2. 0.1% DMSO-control or serial compound dilution in triplicates are added. […] After 5 days of incubation with test compounds, the cells plates are measured upon addition of CellTiter Glo Luminescent Cell Viability Reagent (Promega, #G9243) to assess cell viability. The plates are placed on a shaker for five minutes and additionally incubated for 10 minutes at room temperature to induce cell lysis and to stabilize the luminescent signal. The luminescent signal of each well is measured in an EnSpire Multilabel Plate Reader 658 (PerkinElmer). The dose response curves are fit and visualized using Boehringer Ingelheim's proprietary software MegaLab and PRISM (GraphPad Inc.).

[2] = tested on: parental NCI-N87 cells; experiment: Proliferation assay (CellTiter Glo), parental NCI-N87 cells; format: cell-based, human; conditions: 5 days of incubation, in vitro
Procedure: as §1

[3] = tested on: HER2-overexpressing human NSCLC cell line Calu-3; experiment: Calu-3 subcutaneous xenograft, zongertinib with trastuzumab and/or pertuzumab; format: in vivo, CB-17/Icr-Prkdc^scid mice; conditions: day 42, zongertinib 20 mg/kg qdx42 p.o., trastuzumab 20 mg/kg q7dx6 i.p., pertuzumab 20 mg/kg q7dx6 i.p., alone or combined
Procedure: The study is performed in human NSCLC cell line Calu-3 grown as subcutaneous xenografts in CB-17/Icr-Prkdc^scid mice. Day 1 was the first day, day 42 the last day of treatment and final day of analysis.
Calu-3 is a HER2-overexpressing human NSCLC cell line that can be obtained from ATCC (lot 614492062). Cells are cultured in T75, T175 and 5-Layer tissue culture flasks at 37° C. and 5% CO2. The medium used is EMEM (Lonza BE12-662F) supplemented with 10% FCS (Cytiva HyClone Characterized FBS, SH30084.03n), 2 mM Glutamax (Gibco 35050-038), 0.5 mM sodium pyruvate (Sigma S8636). Cultures are split once weekly with a ratio of 1:1.5-1:2.
To establish subcutaneous tumors, Calu-3 cells are harvested by centrifugation, washed and resuspended in PBS+5% FCS at 7×10^7 cells/ml. 50 μl cell suspension containing 3.5×10^6 cells is injected subcutaneously into the right flank of mice (1 site per mouse).
Mice in the control group are treated with vehicle, i.e.: • (i) 0.5% Natrosol, administered once daily for the duration of the treatment intragastrally by gavage needle with a volume of 10 ml/kg body weight; and • (ii) saline (0.9%), administered once every week intraperitoneally with a volume of 10 ml/kg.
Tumor volumes and side effects are monitored as described in Example 1 (see paragraph 1.1.6).
(§2) The statistical evaluation of the tumor volume and the body weight is conducted on day 21 (last day of the study). Apart from this, statistical analysis was performed as described in Example 1 (see paragraph 1.1.7), with no evaluation of tumor growth after stop of treatment.

[4] = tested on: HER2-overexpressing human breast cancer cell line SUM190PT; format: in vivo
Procedure: The study is performed in human breast cancer cell line SUM190PT grown as subcutaneous xenografts in NMRI-Foxn1^nu mice. Day 1 was the first day, day 21 the last day of treatment and final day of analysis.
Cells are obtained and cultured as described in Example 8 (see paragraph 8.1.2).
Capecitabine can be purchased from Roche Pharma AG. Capecitabine is suspended with 0.5% Natrosol and administered intragastrally with a volume of 10 ml/kg.
Tumor volumes and side effects are monitored as described in Example 1 (see paragraph 1.1.6), except that control animals are sacrificed when the median tumor volume of the group reaches a size of approximately 540 mm^3.
as §2

CC[C@@]1(O)C(=O)OCc2c1cc1n(c2=O)Cc2c-1nc1cc(F)c(C)c3c1c2[C@@H](NC(=O)COCNC(=O)CNC(=O)[C@H](Cc1ccccc1)NC(=O)CNC(=O)CNC(=O)CCCCCN1C(=O)C=CC1=O)CC3 [deruxtecan, reference compound] ({Hexanoyl(6-maleimido)}-GGFG[NHCH2OCH2CO]-Exatecan)
sensitivity (dose response, cell viability) [1]: resistant | sensitivity (dose response, cell viability) [2]: sensitive

pertuzumab [reference compound]
Regressions >30% ([3]; tumors regressed/total (partial response)): 0/10 | TGI [3]: 89%

CCCCCOC(=O)Nc1nc(=O)n([C@@H]2O[C@H](C)[C@@H](O)[C@H]2O)cc1F [Capecitabine, capecitabine, reference compound]
Regressions >30% ([4]; day 21, tumors regressed/total (partial response), zongertinib 10 mg/kg qdx21 p.o., capecitabine 400 mg/kg qdx21 p.o., trastuzumab 20 mg/kg q7dx3 i.p., alone or combined): 0/8 | TGI ([4]; day 21, zongertinib 10 mg/kg qdx21 p.o., capecitabine 400 mg/kg qdx21 p.o., trastuzumab 20 mg/kg q7dx3 i.p., alone or combined): 106% | effect on tumor growth (median tumor volumes over time) ([4]; zongertinib 10 mg/kg qdx21, capecitabine 400 mg/kg qdx21, trastuzumab 20 mg/kg q7dx3, alone or triple combination): delayed tumor growth but did not shrink tumors
